{"source": "patent US12723063B2", "about": "“GIPR-agonist compounds” (Eli Lilly and Company, priority 2019, dated 2026)", "assay_in_all_cases": "cAMP functional assay (HTRF) in HEK293 cells in presence of 0.1% casein", "format_in_all_cases": "cell-based", "key": {"[1]": {"biological_target": "T1, human glucagon receptor (GcgR) (Homo sapiens, UniProt P47871)", "T1 construct": "expressed in transfected cells; host or cells: HEK293", "T1 sequence (P47871 26-477)": "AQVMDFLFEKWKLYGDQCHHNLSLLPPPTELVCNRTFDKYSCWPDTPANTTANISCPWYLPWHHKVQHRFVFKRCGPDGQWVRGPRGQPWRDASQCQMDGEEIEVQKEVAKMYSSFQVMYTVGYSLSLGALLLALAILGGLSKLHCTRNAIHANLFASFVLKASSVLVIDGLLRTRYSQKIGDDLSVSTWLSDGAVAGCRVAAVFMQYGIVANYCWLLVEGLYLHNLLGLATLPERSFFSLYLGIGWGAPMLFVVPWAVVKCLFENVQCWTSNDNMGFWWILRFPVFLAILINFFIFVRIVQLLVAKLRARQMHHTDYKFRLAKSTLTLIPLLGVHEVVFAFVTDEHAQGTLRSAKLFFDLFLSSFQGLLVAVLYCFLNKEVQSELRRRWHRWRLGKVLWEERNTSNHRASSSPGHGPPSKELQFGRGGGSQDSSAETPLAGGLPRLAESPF", "conditions": "HEK293 cells expressing human GcgR, geometric mean, read-out: hGcgR cAMP Rel EC50 nM (SEM, n)"}, "[2]": {"biological_target": "T2, human GLP-1 receptor (GLP-1R) (Homo sapiens, UniProt P43220)", "T2 construct": "expressed in transfected cells; host or cells: HEK293", "T2 sequence (P43220 24-463)": "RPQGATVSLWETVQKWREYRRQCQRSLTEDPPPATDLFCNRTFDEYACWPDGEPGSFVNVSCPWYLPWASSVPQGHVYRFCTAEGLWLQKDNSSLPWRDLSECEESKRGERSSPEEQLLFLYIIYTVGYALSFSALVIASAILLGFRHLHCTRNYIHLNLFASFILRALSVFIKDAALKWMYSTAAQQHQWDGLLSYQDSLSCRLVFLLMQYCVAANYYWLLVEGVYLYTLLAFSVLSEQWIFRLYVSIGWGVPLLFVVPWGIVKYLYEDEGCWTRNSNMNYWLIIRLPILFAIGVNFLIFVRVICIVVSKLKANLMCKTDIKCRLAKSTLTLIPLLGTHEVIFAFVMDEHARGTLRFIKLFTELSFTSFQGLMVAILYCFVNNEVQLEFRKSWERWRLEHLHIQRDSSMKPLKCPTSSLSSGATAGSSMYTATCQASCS", "conditions": "HEK293 cells expressing human GLP-1R, geometric mean, read-out: hGLP1R cAMP Rel EC50 nM (SEM, n)"}, "[3]": {"biological_target": "T3, human glucose-dependent insulinotropic peptide receptor (GIPR) (Homo sapiens, UniProt P48546)", "T3 construct": "expressed in transfected cells; host or cells: HEK293", "T3 sequence (P48546 22-466)": "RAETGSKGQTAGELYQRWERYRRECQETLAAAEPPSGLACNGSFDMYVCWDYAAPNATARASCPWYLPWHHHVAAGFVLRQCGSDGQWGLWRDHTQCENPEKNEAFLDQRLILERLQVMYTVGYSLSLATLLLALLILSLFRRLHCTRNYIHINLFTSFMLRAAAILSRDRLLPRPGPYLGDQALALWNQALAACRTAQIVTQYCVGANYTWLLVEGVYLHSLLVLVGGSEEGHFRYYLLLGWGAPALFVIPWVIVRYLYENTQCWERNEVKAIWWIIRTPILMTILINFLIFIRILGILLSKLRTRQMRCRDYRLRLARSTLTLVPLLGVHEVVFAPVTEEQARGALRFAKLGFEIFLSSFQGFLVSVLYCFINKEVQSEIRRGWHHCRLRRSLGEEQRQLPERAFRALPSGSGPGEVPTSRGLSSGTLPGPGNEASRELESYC", "conditions": "HEK293 cells expressing human GIPR, geometric mean, read-out: hGIPR cAMP Rel EC50 nM (SEM, n)"}}, "note": "*1 amine or outer side, *2 acyl side, *3 side chain or, on linkers, in order; H or OH if unused. Where a SMILES comes first, the peptide text is derived from it. Side-chain parts run from the residue outwards. [ ]: non-standard residue; d: D form. The star is where a group is joined. C20 diacid = O=C(O)CCCCCCCCCCCCCCCCCCC(=O)*; αMePhe(2-F) = C[C@](N)(Cc1ccccc1F)C(=O)O; γGlu = O=C(O)[C@H](CCC(=O)[*:2])N[*:1]; αMeF = C[C@](N)(Cc1ccccc1)C(=O)O; 4Pal = N[C@@H](Cc1ccncc1)C(=O)O; αMeL = CC(C)C[C@](C)(N)C(=O)O; Iva = CC[C@](C)(N)C(=O)O; AEEA = NCCOCCOCC(=O)O; Aib = CC(C)(N)C(=O)O", "data": [{"smiles": "CC[C@H](C)[C@H](NC(=O)[C@H](CO)NC(=O)[C@H](Cc1ccc(O)cc1)NC(=O)[C@H](CC(=O)O)NC(=O)[C@H](CO)NC(=O)[C@@H](NC(=O)[C@](C)(Cc1ccccc1F)NC(=O)[C@@H](NC(=O)CNC(=O)[C@H](CCC(=O)O)NC(=O)C(C)(C)NC(=O)[C@@H](N)Cc1ccc(O)cc1)[C@@H](C)O)[C@@H](C)CC)C(=O)N[C@@H](C)C(=O)N[C@@H](CC(C)C)C(=O)N[C@@H](CC(=O)O)C(=O)N[C@@H](CCCCN)C(=O)N[C@@H](CCCCNC(=O)COCCOCCNC(=O)COCCOCCNC(=O)CC[C@H](NC(=O)CCCCCCCCCCCCCCCCCCC(=O)O)C(=O)O)C(=O)N[C@@H](Cc1c[nH]cn1)C(=O)N[C@@H](CCC(N)=O)C(=O)NC(C)(C)C(=O)N[C@@H](CC(=O)O)C(=O)N[C@@H](Cc1ccccc1)C(=O)N[C@H](C(=O)N[C@@H](CCC(=O)O)C(=O)N[C@@H](Cc1ccc(O)cc1)C(=O)N[C@@H](CC(C)C)C(=O)N[C@@H](CC(C)C)C(=O)N[C@@H](CCC(=O)O)C(=O)NCC(=O)NCC(=O)N1CCC[C@H]1C(=O)N[C@@H](CO)C(=O)N[C@@H](CO)C(=O)NCC(=O)N[C@@H](C)C(=O)N1CCC[C@H]1C(=O)N1CCC[C@H]1C(=O)N1CCC[C@H]1C(=O)N[C@@H](CO)C(N)=O)C(C)C", "note": "[Example 37] (H-Y[Aib]EGT[αMePhe(2-F)]ISDYSIALDKK([AEEA-AEEA-γGlu-C20 diacid])HQ[Aib]DFVEYLLEGGPSSGAPPPS-NH2)", "values": [{"measurement": "EC50", "setting": "[1]", "result": "> 5000", "unit": "nM"}, {"measurement": "EC50", "setting": "[2]", "result": 61.1, "unit": "nM"}, {"measurement": "EC50", "setting": "[3]", "result": 0.036, "unit": "nM"}]}, {"smiles": "CC[C@H](C)[C@H](NC(=O)[C@H](CO)NC(=O)[C@H](Cc1ccc(O)cc1)NC(=O)[C@H](CC(=O)O)NC(=O)[C@H](CO)NC(=O)[C@@H](NC(=O)[C@](C)(CC)NC(=O)[C@@H](NC(=O)CNC(=O)[C@H](CCC(=O)O)NC(=O)C(C)(C)NC(=O)[C@@H](N)Cc1ccc(O)cc1)[C@@H](C)O)[C@@H](C)CC)C(=O)N[C@@](C)(CC(C)C)C(=O)N[C@@H](CC(C)C)C(=O)N[C@@H](CC(=O)O)C(=O)N[C@@H](CCCCN)C(=O)N[C@@H](CCCCNC(=O)COCCOCCNC(=O)COCCOCCNC(=O)CC[C@H](NC(=O)CCCCCCCCCCCCCCCCCCC(=O)O)C(=O)O)C(=O)N[C@@H](Cc1c[nH]cn1)C(=O)N[C@@H](CCC(N)=O)C(=O)NC(C)(C)C(=O)N[C@@H](CC(=O)O)C(=O)N[C@@H](Cc1ccccc1)C(=O)N[C@H](C(=O)N[C@@H](CCC(=O)O)C(=O)N[C@@H](Cc1ccncc1)C(=O)N[C@@H](CC(C)C)C(=O)N[C@@H](CC(C)C)C(=O)N[C@@H](C)C(=O)NCC(=O)NCC(=O)N1CCC[C@H]1C(=O)N[C@@H](CO)C(=O)N[C@@H](CO)C(=O)NCC(=O)N[C@@H](C)C(=O)N1CCC[C@H]1C(=O)N1CCC[C@H]1C(=O)N1CCC[C@H]1C(=O)N[C@@H](CO)C(N)=O)C(C)C", "note": "[Example 55] (H-Y[Aib]EGT[Iva]ISDYSI[αMeL]LDKK([AEEA-AEEA-γGlu-C20 diacid])HQ[Aib]DFVE[4Pal]LLAGGPSSGAPPPS-NH2)", "values": [{"measurement": "EC50", "setting": "[1]", "result": "> 5000", "unit": "nM"}, {"measurement": "EC50", "setting": "[2]", "result": "> 5000", "unit": "nM"}, {"measurement": "EC50", "setting": "[3]", "result": 0.017, "unit": "nM"}]}, {"smiles": "CC[C@H](C)[C@H](NC(=O)[C@H](Cc1ccccc1)NC(=O)[C@@H](NC(=O)CNC(=O)[C@H](CCC(=O)O)NC(=O)C(C)(C)NC(=O)[C@@H](N)Cc1ccc(O)cc1)[C@@H](C)O)C(=O)N[C@@H](CO)C(=O)N[C@@H](CC(=O)O)C(=O)N[C@@H](Cc1ccc(O)cc1)C(=O)N[C@@H](CO)C(=O)N[C@H](C(=O)N[C@@](C)(CC(C)C)C(=O)N[C@@H](CC(C)C)C(=O)N[C@@H](CC(=O)O)C(=O)N[C@@H](CCCCN)C(=O)N[C@@H](CCCCNC(=O)COCCOCCNC(=O)COCCOCCNC(=O)CC[C@H](NC(=O)CCCCCCCCCCCCCCCCCCC(=O)O)C(=O)O)C(=O)N[C@@H](Cc1c[nH]cn1)C(=O)N[C@@H](CCC(N)=O)C(=O)NC(C)(C)C(=O)N[C@@H](CC(=O)O)C(=O)N[C@@H](Cc1ccccc1)C(=O)N[C@H](C(=O)N[C@@H](CCC(=O)O)C(=O)N[C@@H](Cc1ccncc1)C(=O)N[C@@H](CC(C)C)C(=O)N[C@@H](CC(C)C)C(=O)N[C@@H](CCC(=O)O)C(=O)NCC(=O)NCC(=O)N1CCC[C@H]1C(=O)N[C@@H](CO)C(=O)N[C@@H](CO)C(=O)NCC(=O)N[C@@H](C)C(=O)N1CCC[C@H]1C(=O)N1CCC[C@H]1C(=O)N1CCC[C@H]1C(=O)N[C@@H](CO)C(N)=O)C(C)C)[C@@H](C)CC", "note": "[Example 47] (H-Y[Aib]EGTFISDYSI[αMeL]LDKK([AEEA-AEEA-γGlu-C20 diacid])HQ[Aib]DFVE[4Pal]LLEGGPSSGAPPPS-NH2)", "values": [{"measurement": "EC50", "setting": "[1]", "result": 757, "unit": "nM"}, {"measurement": "EC50", "setting": "[2]", "result": "> 5000", "unit": "nM"}, {"measurement": "EC50", "setting": "[3]", "result": 0.0234, "unit": "nM"}]}, {"smiles": "CC[C@H](C)[C@H](NC(=O)[C@H](CO)NC(=O)[C@H](Cc1ccc(O)cc1)NC(=O)[C@H](CC(=O)O)NC(=O)[C@H](CO)NC(=O)[C@@H](NC(=O)[C@](C)(Cc1ccccc1)NC(=O)[C@@H](NC(=O)CNC(=O)[C@H](CCC(=O)O)NC(=O)C(C)(C)NC(=O)[C@@H](N)Cc1ccc(O)cc1)[C@@H](C)O)[C@@H](C)CC)C(=O)N[C@@](C)(CC(C)C)C(=O)N[C@@H](CC(C)C)C(=O)N[C@@H](CC(=O)O)C(=O)N[C@@H](CCCCN)C(=O)N[C@@H](CCCCNC(=O)COCCOCCNC(=O)COCCOCCNC(=O)CC[C@H](NC(=O)CCCCCCCCCCCCCCCCCCC(=O)O)C(=O)O)C(=O)N[C@@H](Cc1c[nH]cn1)C(=O)N[C@@H](CCC(N)=O)C(=O)NC(C)(C)C(=O)N[C@@H](CC(=O)O)C(=O)N[C@@H](Cc1ccccc1)C(=O)N[C@H](C(=O)N[C@@H](CCC(=O)O)C(=O)N[C@@H](Cc1ccncc1)C(=O)N[C@@H](CC(C)C)C(=O)N[C@@H](CC(C)C)C(=O)N[C@@H](C)C(=O)NCC(=O)NCC(=O)N1CCC[C@H]1C(=O)N[C@@H](CO)C(=O)N[C@@H](CO)C(=O)NCC(=O)N[C@@H](C)C(=O)N1CCC[C@H]1C(=O)N1CCC[C@H]1C(=O)N1CCC[C@H]1C(=O)N[C@@H](CO)C(N)=O)C(C)C", "note": "[Example 50] (H-Y[Aib]EGT[αMeF]ISDYSI[αMeL]LDKK([AEEA-AEEA-γGlu-C20 diacid])HQ[Aib]DFVE[4Pal]LLAGGPSSGAPPPS-NH2)", "values": [{"measurement": "EC50", "setting": "[1]", "result": 371, "unit": "nM"}, {"measurement": "EC50", "setting": "[2]", "result": 41, "unit": "nM"}, {"measurement": "EC50", "setting": "[3]", "result": 0.0212, "unit": "nM"}]}, {"smiles": "CC[C@H](C)[C@H](NC(=O)[C@H](CO)NC(=O)[C@H](Cc1ccc(O)cc1)NC(=O)[C@H](CC(=O)O)NC(=O)[C@H](CO)NC(=O)[C@@H](NC(=O)[C@](C)(Cc1ccccc1)NC(=O)[C@@H](NC(=O)CNC(=O)[C@H](CCC(=O)O)NC(=O)C(C)(C)NC(=O)[C@@H](N)Cc1ccc(O)cc1)[C@@H](C)O)[C@@H](C)CC)C(=O)N[C@@H](C)C(=O)N[C@@H](CC(C)C)C(=O)N[C@@H](CC(=O)O)C(=O)N[C@@H](CCCCN)C(=O)N[C@@H](CCCCNC(=O)COCCOCCNC(=O)COCCOCCNC(=O)CC[C@H](NC(=O)CCCCCCCCCCCCCCCCCCC(=O)O)C(=O)O)C(=O)N[C@@H](Cc1c[nH]cn1)C(=O)N[C@@H](CCC(N)=O)C(=O)NC(C)(C)C(=O)N[C@@H](CC(=O)O)C(=O)N[C@@H](Cc1ccccc1)C(=O)N[C@H](C(=O)N[C@@H](CCC(=O)O)C(=O)N[C@@H](Cc1ccncc1)C(=O)N[C@@H](CC(C)C)C(=O)N[C@@H](CC(C)C)C(=O)N[C@@H](CCC(=O)O)C(=O)NCC(=O)NCC(=O)N1CCC[C@H]1C(=O)N[C@@H](CO)C(=O)N[C@@H](CO)C(=O)NCC(=O)N[C@@H](C)C(=O)N1CCC[C@H]1C(=O)N1CCC[C@H]1C(=O)N1CCC[C@H]1C(=O)N[C@@H](CO)C(N)=O)C(C)C", "note": "[Example 44] (H-Y[Aib]EGT[αMeF]ISDYSIALDKK([AEEA-AEEA-γGlu-C20 diacid])HQ[Aib]DFVE[4Pal]LLEGGPSSGAPPPS-NH2)", "values": [{"measurement": "EC50", "setting": "[1]", "result": "> 5000", "unit": "nM"}, {"measurement": "EC50", "setting": "[2]", "result": 1180, "unit": "nM"}, {"measurement": "EC50", "setting": "[3]", "result": 0.0084, "unit": "nM"}]}]}
